Values joined by “and” are separate entries in the source; they are usually repeats but may differ in a detail not shown here. Equal entries are not always repeated. Where two headings read alike, the source gives them in different places. Values belong to the molecule of their own block, whether it stands above or below them. Residues, ends and D or L forms follow the SMILES beside them.
What was measured:
SHC2-PTB domain = SHC2-PTB domain (Homo sapiens, UniProt P98077); assay: FP saturation binding assay
[1] = molecular target: PIK3R2-NC tandem SH2 domains (Homo sapiens, UniProt O00459); assay: FP saturation binding assay
PIK3R3-C SH2 domain [2] = molecular target: T1, PIK3R3-C SH2 domain (Homo sapiens, UniProt Q92569); assay: Surface plasmon resonance (Biacore 3000); format: binding; conditions: SPR, NA = no interaction detected
T1 construct: thioredoxin; made in house; host or cells: E. coli BL21(DE3)pLysS
Procedure: (§1) All SPR experiments were performed using Biacore 3000 (GE HealthCare, Piscataway, NJ) instrumentation. 6X His-tagged SH2 domain proteins were immobilized on a nitriloacetic acid (NTA) sensor chip (GE HealthCare, Piscataway, NJ) charged with Ni^2+ ions. Dye-free ErbB family peptides were applied to the sensor chip in a single flow cell in solution phase (while the other flow cell was used as a reference control) and binding events were measured under equilibrium conditions. FP false positive [drawing 7] (FPR), false discovery [drawing 8] (FDR), and false negative [drawing 9] (FNR) rates were calculated by defining true positives (TP) as interactions detected by both FP and SPR, true negatives (TN) as interactions detected by neither FP nor SPR; false positives as interactions identified by FP but not validated by SPR; and false negatives (FN) as interactions missed by FP but detected by SPR. Additional details for all methods are provided in the Supplementary Methods.
A randomly selected set of 12 recombinant SH2 domain proteins and unlabeled (rhodamine dye free) peptides (9 ErbB, 2 GAB1, 2 KIT, 2 MET) were generated for the surface plasmon resonance (SPR) validation study. The 6X His-tagged SH2 domain proteins used in the assay, PLCG1-C, SHC4, VAV2, TNS3, PIK3R3-C, SYK-C, PIK3R1-N, SUPT6H, CRKL, TEC, SHB, and SHC3 were produced and purified as previously described (see “SH2 and PTB domain proteins” section and Jones et al., 2006). Fresh protein stocks were generated so as to avoid bias incurred from proteins previously used in the FP assays. 13-mer peptides corresponding to ErbB1 pY801, ErbB1 pY900, ErbB1 pY978, ErbB1 pY1069, ErbB2 pY685, ErbB pY803, ErbB3 pY912, ErbB4 pY833, ErbB4 pY906, GAB1 pY183, GAB1 pY472, KIT pY570, KIT pY936, MET pY1093 and MET pY1313, were synthesized successfully for the assay using previously described approaches (see “FP competitor peptide synthesis” section). For SPR detection via the Biacore 3000 (GE HealthCare, Piscataway, NJ), His-tagged SH2 domains were immobilized on Biacore NTA sensor chips (GE HealthCare, Piscataway, NJ) pre-charged with Ni^2+ ions in one flow cell while the second served as a negative control reference cell. Peptides were introduced in solution phase to both cells and relative response units (RUs) were recorded from output sensograms. Nine concentrations of peptide and a buffer control, in duplicate, were used to determine KDs using the equilibrium method (best-fit simultaneous modeling for peptide association and disassociation curves).

PIK3R1-N SH2 domain [3] = molecular target: T2, PIK3R1-N SH2 domain (Homo sapiens, UniProt P27986); assay: biochemical; format: binding; conditions: FP, PIK3R1-N; mean; NA = no interaction detected
T2 construct: thioredoxin; made in house; host or cells: E. coli BL21(DE3)pLysS

PIK3R3-C SH2 domain [4] = molecular target: T1, PIK3R3-C SH2 domain; assay: biochemical; format: binding; conditions: FP, PIK3R3-C; mean; NA = no interaction detected
PIK3R1-N SH2 domain [5] = molecular target: T2, PIK3R1-N SH2 domain; assay: Surface plasmon resonance (Biacore 3000); format: binding; conditions: SPR, NA = no interaction detected
Procedure: as §1
(§2) Fresh protein stocks were generated so as to avoid bias incurred from proteins previously used in the FP assays. […]

RASA1-N SH2 domain [6] = molecular target: T3, RASA1-N SH2 domain (Homo sapiens, UniProt P20936); assay: FP saturation binding assay
T3 sequence (P20936 181-272 limits assumed): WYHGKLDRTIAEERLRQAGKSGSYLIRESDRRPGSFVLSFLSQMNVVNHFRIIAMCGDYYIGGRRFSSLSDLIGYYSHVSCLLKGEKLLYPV

GRB7 SH2 domain [7] = molecular target: T4, GRB7 SH2 domain (Homo sapiens, UniProt Q14451); assay: FP competition assay; format: binding; design: 6X His; thioredoxin; made in house; host or cells: E. coli BL21(DE3)pLysS; conditions: labeled peptide ErbB3pY1197, Fig. 3 graph C, read-out: Ki (obs)
Procedure: (§3) Unlabeled phosphopeptides were synthesized with some modifications to the previously described protocol. […] Unlabeled competitor peptides were prepared at 11 serial 1∶3 dilutions in assay buffer; one control with no unlabeled competitor peptides was also included with each experimental set. The fluorescent peptide, protein, and unlabeled peptide mixtures were allowed to incubate for a minimum of 20 minutes in 384-well plates and polarization signals were measured using the Analyst GT multimode reader as previously described above. Inhibition curves were constructed by four-parameter log-logistic regression using the “drc” package in R with the parameters for maximum and minimum fluorescence fixed according to Z’ factor positive and negative control values. IC50 values were estimated from these fits under a one-site competition binding model and Ki calculated according to the equation developed by.

RASA1-N SH2 domain [8] = molecular target: T3, RASA1-N SH2 domain; assay: FP competition assay; format: binding; design: 6X His; thioredoxin; made in house; host or cells: E. coli BL21(DE3)pLysS; conditions: RASA1N, Fig. 3 graph A, read-out: Ki (obs)
Procedure: as §3

GRB7 SH2 domain [9] = molecular target: T4, GRB7 SH2 domain; assay: FP saturation binding assay; conditions: read-out: Ki ( exp FP); competing peptide, GRB7; Ki expected from FP; NI = no interaction
SRC SH2 domain = molecular target: T5, SRC SH2 domain (Homo sapiens, UniProt P12931); assay: FP competition assay; format: binding; conditions: labeled peptide ErbB3pY1222, Fig. 3 graph B, read-out: Ki (obs)
T5 construct: between the c-Src SH2 domain and ErbB1 in our FP assay; 6X His; thioredoxin; made in house; host or cells: E. coli BL21(DE3)pLysS
Procedure: as §3

SHC3 SH2 domain [10] = molecular target: T6, SHC3 SH2 domain (Homo sapiens, UniProt Q92529); assay: FP saturation binding assay
SHC3 SH2 domain [11] = molecular target: T6, SHC3 SH2 domain; assay: Surface plasmon resonance (Biacore 3000); format: binding; design: A randomly selected set of 12 recombinant SH2 domain proteins; thioredoxin; made in house; host or cells: E. coli BL21(DE3)pLysS; conditions: SPR, NA = no interaction detected
Procedure: as §1, §2

TNS3 SH2 domain = molecular target: T7, TNS3 SH2 domain (Homo sapiens, UniProt Q68CZ2); assay: FP saturation binding assay
T7 sequence (Q68CZ2 1172-1282 limits assumed): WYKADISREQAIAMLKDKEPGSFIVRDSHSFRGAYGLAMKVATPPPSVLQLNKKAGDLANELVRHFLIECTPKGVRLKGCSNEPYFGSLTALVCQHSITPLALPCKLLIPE

SH2 and PTB domains = assay: In-house protein microarrays (with or without 5 mM DTT), protein named per line; format: binding, human; conditions: in-house protein microarray, protein named in c0 of the line, sheet ErbB4 pY733 (18-mer)
Procedure: 300 pL of purified recombinant proteins and a thioredoxin tag control were spotted at a concentration of ∼40 µM in duplicate onto aldehyde-coated microscope slides (Erie Scientific Company, Portsmouth, NH) using a Nano-Plotter (NP) 2.1/E noncontact microarrayer (GeSiM, Munich, Germany). 16 identical microarrays per slide were printed in a 2×8 (column by row) format with distances of 9 mm between individual arrays; each array consisted of a 14×14 configuration of spots 400 µm apart. Following printing at a constant humidity level of 50%, slides were desiccated overnight and stored at −80°C. For peptide probing, array slides were transferred to 96-well microplates (TeleChem International, Inc., Sunnyvale, CA) and sandwiched with silicone gaskets. Prior to peptide addition, aldehyde sites were quenched with buffer B (20 mM HEPES, 100 mM KCl, 0.1% Tween-20, 5 mM DTT, pH 7.8) containing 1% bovine serum albumin (BSA) (w/v) for one hour at room temperature; moderate agitation was applied in a plate shaker (IKA, Germany) to displace glycerol from the surface area of protein sample spots. […] The arrays were subsequently washed once with 300 µL of buffer B and once with 300 µL of ddH2O. Residual water was removed by centrifugation; slides were stored under desiccation in the dark until analysis.
Microarray slides were scanned at a resolution of 10 µm using a GenePix 4000B microarray scanner and analyzed using GenePix Pro v6.0 software (Molecular Devices, Sunnyvale, CA). To independently visualize protein spots irrespective of peptide binding, samples were printed simultaneously with 400 nM of Cyanine-5 (Cy5) labeled bovine serum albumin (BSA). […] Following spot layout identification via Cy5 labeled BSA, the mean fluorescence intensity of rhodamine for duplicate protein spots was quantified and normalized by subtracting the corresponding mean fluorescence intensity of thioredoxin. Normalized fluorescence values were then imported into MATLAB and KDs determined as previously described.

T2 sequence (P27986 333-428 limits assumed): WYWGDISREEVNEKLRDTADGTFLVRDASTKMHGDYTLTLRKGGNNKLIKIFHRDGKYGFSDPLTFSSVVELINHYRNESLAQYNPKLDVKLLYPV
T6 sequence (Q92529 499-590 limits assumed): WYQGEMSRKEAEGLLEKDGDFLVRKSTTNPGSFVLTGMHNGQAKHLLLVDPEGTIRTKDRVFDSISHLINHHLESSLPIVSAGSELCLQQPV
T4 sequence (Q14451 431-527 limits assumed): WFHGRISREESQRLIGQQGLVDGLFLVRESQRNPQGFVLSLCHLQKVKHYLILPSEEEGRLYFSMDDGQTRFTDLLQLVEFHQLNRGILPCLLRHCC
Sequence of PIK3R2-NC tandem SH2 domains (O00459 330-716 limits assumed): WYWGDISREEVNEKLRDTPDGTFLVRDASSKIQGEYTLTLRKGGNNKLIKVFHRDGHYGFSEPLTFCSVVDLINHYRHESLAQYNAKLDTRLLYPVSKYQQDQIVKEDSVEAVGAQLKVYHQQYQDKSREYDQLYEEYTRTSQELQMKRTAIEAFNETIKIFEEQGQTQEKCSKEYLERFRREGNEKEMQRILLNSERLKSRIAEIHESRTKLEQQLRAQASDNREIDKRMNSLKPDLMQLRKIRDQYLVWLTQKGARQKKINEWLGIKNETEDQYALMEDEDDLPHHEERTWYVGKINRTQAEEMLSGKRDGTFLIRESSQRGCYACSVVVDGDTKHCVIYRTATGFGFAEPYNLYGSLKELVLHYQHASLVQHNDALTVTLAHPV
Sequence of SHC2-PTB domain (P98077 147-329 limits assumed): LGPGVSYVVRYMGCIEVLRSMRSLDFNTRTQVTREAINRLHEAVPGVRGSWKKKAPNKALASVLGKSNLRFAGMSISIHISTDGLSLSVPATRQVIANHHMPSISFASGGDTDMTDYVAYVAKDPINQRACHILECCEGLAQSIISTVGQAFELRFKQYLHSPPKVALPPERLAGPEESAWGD
T5 sequence (P12931 151-248 limits assumed): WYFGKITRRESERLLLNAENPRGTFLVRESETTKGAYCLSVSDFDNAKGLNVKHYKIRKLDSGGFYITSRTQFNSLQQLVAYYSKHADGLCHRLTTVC

- Kd (SHC2-PTB domain): 5420 nM
- Kd [1]: 6930 nM
Molecule: CC(C)C[C@H](NC(=O)[C@H](CCC(=O)O)NC(=O)[C@H](Cc1c[nH]c2ccccc12)NC(=O)[C@@H](NC(=O)[C@@H](NC(=O)[C@@H](NC(=O)CNC(=O)[C@H](Cc1ccc(O)cc1)NC(=O)[C@H](CO)NC(=O)[C@H](Cc1c[nH]c2ccccc12)NC(=O)[C@@H](NC(=O)[C@@H](N)CC(=O)O)C(C)C)C(C)C)[C@@H](C)O)C(C)C)C(=O)N[C@@H](CC(=O)O)C(=O)O [ErbB1 Y900 (non-phospho)]

Molecule: CC[C@H](C)[C@H](NC(=O)[C@@H](N)CCCCN)C(=O)N[C@@H](CCCNC(=N)N)C(=O)N[C@@H](CCCCN)C(=O)N[C@@H](Cc1ccc(OP(=O)(O)O)cc1)C(=O)N[C@H](C(=O)N[C@@H](CCSC)C(=O)N[C@@H](CCCNC(=N)N)C(=O)N[C@@H](CCCNC(=N)N)C(=O)N[C@@H](CC(C)C)C(=O)N[C@@H](CC(C)C)C(=O)N[C@@H](CCC(N)=O)C(=O)N[C@@H](CC(=O)O)C(=O)O)[C@@H](C)O [ErbB2 685] (HELM PEPTIDE1{K.I.R.K.[O=C([C@H](Cc1ccc(OP(=O)(O)O)cc1)N[*:1])[*:2]].T.M.R.R.L.L.Q.D}$$$$V2.0)
- Kd (PIK3R3-C SH2 domain [2]): 1520 nM
- Kd (PIK3R1-N SH2 domain [3]): 2510 nM
- Kd (PIK3R3-C SH2 domain [4]): 4430 nM
- Kd (PIK3R1-N SH2 domain [5]): 13400 nM

Molecule: CC(C)C[C@H](NC(=O)[C@H](Cc1ccc(OP(=O)(O)O)cc1)NC(=O)[C@H](CCC(=O)O)NC(=O)[C@@H]1CCCN1C(=O)[C@H](CC(N)=O)NC(=O)[C@@H](N)CCC(=O)O)C(=O)N[C@H](C(=O)N1CCC[C@H]1C(=O)N[C@@H](CCC(N)=O)C(=O)NCC(=O)NCC(=O)N[C@@H](C)C(=O)N[C@@H](CC(=O)O)C(=O)O)[C@@H](C)O [ErbB2 pY1196]
- Kd (RASA1-N SH2 domain [6]): 1860 nM
- Ki (GRB7 SH2 domain [7]): 10900 nM
- Ki (RASA1-N SH2 domain [8]; labeled peptide ErbB2pY1196): 2290 nM
- Ki (RASA1-N SH2 domain [8]; labeled peptide ErbB3pY1307): 3540 nM
- Ki (GRB7 SH2 domain [9]): > 20000 nM

Molecule: CSCC[C@H](NC(=O)[C@H](Cc1ccc(O)cc1)NC(=O)[C@H](CCC(=O)O)NC(=O)[C@H](Cc1ccc(OP(=O)(O)O)cc1)NC(=O)CNC(=O)[C@H](CC(C)C)NC(=O)[C@H](CCC(=O)O)NC(=O)[C@@H](N)CCC(=O)O)C(=O)N[C@@H](CC(=O)O)C(=O)N[C@H](C(=O)NCC(=O)N[C@@H](CO)C(=O)N[C@@H](CC(=O)O)C(=O)O)C(C)C [ErbB3 pY1222] (HELM PEPTIDE1{E.E.L.G.[O=C([C@H](Cc1ccc(OP(=O)(O)O)cc1)N[*:1])[*:2]].E.Y.M.D.V.G.S.D}$$$$V2.0)
- Ki (SRC SH2 domain): 2360 nM

Molecule: CC[C@H](C)[C@H](NC(=O)[C@@H](NC(=O)[C@@H](NC(=O)CNC(=O)[C@H](Cc1ccc(OP(=O)(O)O)cc1)NC(=O)[C@H](CO)NC(=O)[C@H](Cc1c[nH]c2ccccc12)NC(=O)[C@@H](NC(=O)[C@@H](N)CC(=O)O)C(C)C)C(C)C)[C@@H](C)O)C(=O)N[C@@H](Cc1c[nH]c2ccccc12)C(=O)N[C@@H](CCC(=O)O)C(=O)N[C@@H](CC(C)C)C(=O)N[C@@H](CC(=O)O)C(=O)O [ErbB4 906] (HELM PEPTIDE1{D.V.W.S.[O=C([C@H](Cc1ccc(OP(=O)(O)O)cc1)N[*:1])[*:2]].G.V.T.I.W.E.L.D}$$$$V2.0)
- Kd (SHC3 SH2 domain [10]): 540 nM
- Kd (PIK3R3-C SH2 domain [2]): 566 nM
- Kd (PIK3R3-C SH2 domain [4]): 1840 nM
- Kd (SHC3 SH2 domain [11]): 6710 nM
- Kd (TNS3 SH2 domain): 800 nM

- Kd (SH2 and PTB domains; PM Assay Replicate # 39307, Array Fabrication # 39320): 800 nM and 400 nM
- Kd (SH2 and PTB domains; PM Assay Replicate # 39334, Array Fabrication # 39329): 790 nM
Molecule: LGSGAFGTVpYKGIWVPEd [ErbB4 pY733 (18-mer), N-terminally rhodamine-labeled 18-mer phosphopeptide]

— publication PMC3433420 (PLoS ONE, 2012)
